Measurements as given in PMC12046209, “Structure, Oligomerization, and Thermal Stability of a Recently Discovered Old Yellow Enzyme” (Proteins, 2025).

Molecular target: T1, FOYE (Old Yellow Enzyme from Ferrovum sp. JA12) (Ferrovum sp., UniProt Z9U1E9MGE1)
T1 construct: pET-28a(+), N-terminal 6xHis tag with thrombin site (removal not described; two tag residues visible in crystal); E. coli BL21(DE3) Star pLysS; homotetramer
T1 sequence (Z9U1E9MGE1 20-373): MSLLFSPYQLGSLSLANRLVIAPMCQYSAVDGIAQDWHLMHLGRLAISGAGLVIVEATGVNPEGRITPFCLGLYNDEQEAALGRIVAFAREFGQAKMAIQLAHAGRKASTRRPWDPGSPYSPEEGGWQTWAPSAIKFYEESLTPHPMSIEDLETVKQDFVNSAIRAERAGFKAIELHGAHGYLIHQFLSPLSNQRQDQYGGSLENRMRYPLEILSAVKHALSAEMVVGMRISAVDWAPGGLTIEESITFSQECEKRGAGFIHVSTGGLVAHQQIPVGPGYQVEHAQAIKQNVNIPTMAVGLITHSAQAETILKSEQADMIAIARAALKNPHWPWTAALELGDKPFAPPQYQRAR
Test: X-ray crystal structure
Assay type: binding
Details: co-purified cofactor, present in all four protomers; crystals from Morpheus II condition E4, 20°C

Question: For `Cc1cc2nc3c(=O)[nH]c(=O)nc-3n(C[C@H](O)[C@H](O)[C@H](O)COP(=O)(O)O)c2cc1C` [FMN], which X-ray crystal structure is on record?
Answer: The X-ray crystal structure was “The electron density for the FMN is clearly visible in all the protomers”.
